Test results as given in PubChem BioAssay AID2060505 (Molecular Pharmacology Branch, DTP, NCI, 2025).

System: 633275-114-R-J1-PDC complex spheroids, viability
Test: Anticancer human tumor 633275-114-R-J1-PDC patient-derived endometrial adenocarcinoma cell line growth inhibition [GQUAD]
Conditions: for IC50: curve of first compound; for viability, T/C: stronger effect = lower value
How it was run: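 Multi-cell-type spheroids of tumor cells with HUVEC and mesenchymal stem cells, treated with drug combinations. Concentrations descend in half-log steps from near clinical Cmax, or from 10 microM where Cmax is unknown; viability read-out.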

[1] = second compound 0.0316 µM, first compound 0.0316 µM
[2] = second compound 0.0316 µM, first compound 0.1 µM
[3] = second compound 0.0316 µM, first compound 0.316 µM
[4] = second compound 0.0316 µM, first compound 1 µM
[5] = second compound 0.0316 µM, first compound 3.16 µM
[6] = second compound 0.0316 µM, first compound 10 µM
[7] = second compound 0.1 µM, first compound 0.0316 µM
[8] = second compound 0.1 µM, first compound 0.1 µM
[9] = second compound 0.1 µM, first compound 0.316 µM
[10] = second compound 0.1 µM, first compound 1 µM
[11] = second compound 0.1 µM, first compound 3.16 µM
[12] = second compound 0.1 µM, first compound 10 µM
[13] = second compound 0.316 µM, first compound 0.0316 µM
[14] = second compound 0.316 µM, first compound 0.1 µM
[15] = second compound 0.316 µM, first compound 0.316 µM
[16] = second compound 0.316 µM, first compound 1 µM
[17] = second compound 0.316 µM, first compound 3.16 µM
[18] = second compound 0.316 µM, first compound 10 µM
[19] = second compound 1 µM, first compound 0.0316 µM
[20] = second compound 1 µM, first compound 0.1 µM
[21] = second compound 1 µM, first compound 0.316 µM
[22] = second compound 1 µM, first compound 1 µM
[23] = second compound 1 µM, first compound 3.16 µM
[24] = second compound 1 µM, first compound 10 µM
[25] = second compound 3.16 µM, first compound 0.0316 µM
[26] = second compound 3.16 µM, first compound 0.1 µM
[27] = second compound 3.16 µM, first compound 0.316 µM
[28] = second compound 3.16 µM, first compound 1 µM
[29] = second compound 3.16 µM, first compound 3.16 µM
[30] = second compound 3.16 µM, first compound 10 µM
[31] = second compound 10 µM, first compound 0.0316 µM
[32] = second compound 10 µM, first compound 0.1 µM
[33] = second compound 10 µM, first compound 0.316 µM
[34] = second compound 10 µM, first compound 1 µM
[35] = second compound 10 µM, first compound 3.16 µM
[36] = second compound 10 µM, first compound 10 µM
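Further: spheroids exposed to the agents for seven days.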
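Wherever viability, T/C is given: percent of DMSO vehicle control viability which is 100%.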

CC1COCCN1c1cc(C2(O)CC3CCC(C2)O3)c2cnn(-c3ccn[nH]3)c2n1 (stereo not drawn) + Cc1[nH]c2ccc(F)cc2c1-c1nc2c3cccnc3c3ncccc3c2[nH]1
IC50 (second compound 0.0316 µM): 99.9 nM
IC50 (second compound 0.1 µM): 99.1 nM
IC50 (second compound 0.316 µM): 90.4 nM
IC50 (second compound 1 µM): 82.9 nM
IC50 (second compound 3.16 µM): 47.6 nM
IC50 (second compound 10 µM): 38.3 nM
viability, T/C [1]: 80.1%
viability, T/C [2]: 49.7%
viability, T/C [3]: 31.2%
viability, T/C [4]: 20.5%
viability, T/C [5]: 14.6%
viability, T/C [6]: 9.97%
viability, T/C [7]: 76.6%
viability, T/C [8]: 50.4%
viability, T/C [9]: 30%
viability, T/C [10]: 20.7%
viability, T/C [11]: 15.8%
viability, T/C [12]: 10.3%
viability, T/C [13]: 75.3%
viability, T/C [14]: 46.9%
viability, T/C [15]: 30.2%
viability, T/C [16]: 21.3%
viability, T/C [17]: 15.4%
viability, T/C [18]: 9.62%
viability, T/C [19]: 70.6%
viability, T/C [20]: 46.3%
viability, T/C [21]: 28.8%
viability, T/C [22]: 20.4%
viability, T/C [23]: 14.9%
viability, T/C [24]: 9.89%
viability, T/C [25]: 56.5%
viability, T/C [26]: 37.9%
viability, T/C [27]: 26.5%
viability, T/C [28]: 19.4%
viability, T/C [29]: 14.7%
viability, T/C [30]: 9.57%
viability, T/C [31]: 52.4%
viability, T/C [32]: 38%
viability, T/C [33]: 25.7%
viability, T/C [34]: 18.2%
viability, T/C [35]: 15.1%
viability, T/C [36]: 9.9%

CC1COCCN1c1cc(C2(S(C)(=N)=O)CC2)nc(-c2ccnc3[nH]ccc23)n1 (stereo not drawn) + Cc1[nH]c2ccc(F)cc2c1-c1nc2c3cccnc3c3ncccc3c2[nH]1
IC50 (second compound 0.0316 µM): 3460 nM
IC50 (second compound 0.1 µM): 3070 nM
IC50 (second compound 0.316 µM): 3550 nM
IC50 (second compound 1 µM): 3240 nM
IC50 (second compound 3.16 µM): 1290 nM
IC50 (second compound 10 µM): 1380 nM
viability, T/C [1]: 105%
viability, T/C [2]: 96.1%
viability, T/C [3]: 98.3%
viability, T/C [4]: 73.9%
viability, T/C [5]: 52.6%
viability, T/C [6]: 33.8%
viability, T/C [7]: 97.3%
viability, T/C [8]: 99.9%
viability, T/C [9]: 96.4%
viability, T/C [10]: 78.5%
viability, T/C [11]: 49.8%
viability, T/C [12]: 33.2%
viability, T/C [13]: 102%
viability, T/C [14]: 97.5%
viability, T/C [15]: 90.5%
viability, T/C [16]: 81.6%
viability, T/C [17]: 50.4%
viability, T/C [18]: 33.5%
viability, T/C [19]: 90.9%
viability, T/C [20]: 92.8%
viability, T/C [21]: 87.6%
viability, T/C [22]: 73%
viability, T/C [23]: 50.7%
viability, T/C [24]: 34.3%
viability, T/C [25]: 73.7%
viability, T/C [26]: 76.4%
viability, T/C [27]: 69.9%
viability, T/C [28]: 52.6%
viability, T/C [29]: 38.4%
viability, T/C [30]: 30.3%
viability, T/C [31]: 71.7%
viability, T/C [32]: 71.5%
viability, T/C [33]: 67%
viability, T/C [34]: 54.7%
viability, T/C [35]: 37.6%
viability, T/C [36]: 27.2%

COc1ccc([C@@H](O)c2cc(-c3ncnc4cc(N5CCOCC5)ccc34)c(F)cc2Cl)nn1 + Cc1[nH]c2ccc(F)cc2c1-c1nc2c3cccnc3c3ncccc3c2[nH]1
IC50 (second compound 0.0316 µM): 4910 nM
IC50 (second compound 0.1 µM): 3710 nM
IC50 (second compound 0.316 µM): 2910 nM
IC50 (second compound 1 µM): 3150 nM
IC50 (second compound 3.16 µM): 1880 nM
IC50 (second compound 10 µM): 1410 nM
viability, T/C [1]: 107%
viability, T/C [2]: 91%
viability, T/C [3]: 82.9%
viability, T/C [4]: 72.5%
viability, T/C [5]: 58%
viability, T/C [6]: 38.5%
viability, T/C [7]: 96.8%
viability, T/C [8]: 99.8%
viability, T/C [9]: 87.5%
viability, T/C [10]: 66.5%
viability, T/C [11]: 54.8%
viability, T/C [12]: 39.7%
viability, T/C [13]: 89.5%
viability, T/C [14]: 96.8%
viability, T/C [15]: 88.9%
viability, T/C [16]: 69.2%
viability, T/C [17]: 50.2%
viability, T/C [18]: 35.1%
viability, T/C [19]: 83.8%
viability, T/C [20]: 90.5%
viability, T/C [21]: 85.4%
viability, T/C [22]: 69.9%
viability, T/C [23]: 51.1%
viability, T/C [24]: 33.9%
viability, T/C [25]: 71.3%
viability, T/C [26]: 68.3%
viability, T/C [27]: 63.2%
viability, T/C [28]: 56.8%
viability, T/C [29]: 44.7%
viability, T/C [30]: 29.7%
viability, T/C [31]: 70.3%
viability, T/C [32]: 69.3%
viability, T/C [33]: 70.6%
viability, T/C [34]: 51.3%
viability, T/C [35]: 42.3%
viability, T/C [36]: 31.6%

O=C(c1cc(Cc2n[nH]c(=O)c3ccccc23)ccc1F)N1CCN(C(=O)C2CC2)CC1 + Cc1[nH]c2ccc(F)cc2c1-c1nc2c3cccnc3c3ncccc3c2[nH]1
IC50 (second compound 0.0316 µM): > 10000 nM
IC50 (second compound 0.1 µM): > 10000 nM
IC50 (second compound 0.316 µM): > 10000 nM
IC50 (second compound 1 µM): > 10000 nM
IC50 (second compound 3.16 µM): 8310 nM
IC50 (second compound 10 µM): > 10000 nM
viability, T/C [1]: 90%
viability, T/C [2]: 88.3%
viability, T/C [3]: 88%
viability, T/C [4]: 84.7%
viability, T/C [5]: 80.5%
viability, T/C [6]: 64.5%
viability, T/C [7]: 98%
viability, T/C [8]: 89.9%
viability, T/C [9]: 94%
viability, T/C [10]: 79.5%
viability, T/C [11]: 80%
viability, T/C [12]: 56.9%
viability, T/C [13]: 92.1%
viability, T/C [14]: 93%
viability, T/C [15]: 88.8%
viability, T/C [16]: 83.1%
viability, T/C [17]: 76%
viability, T/C [18]: 55.4%
viability, T/C [19]: 90.6%
viability, T/C [20]: 89.7%
viability, T/C [21]: 88.4%
viability, T/C [22]: 77.1%
viability, T/C [23]: 74.1%
viability, T/C [24]: 56.7%
viability, T/C [25]: 69.8%
viability, T/C [26]: 67.4%
viability, T/C [27]: 68.4%
viability, T/C [28]: 63.5%
viability, T/C [29]: 59.5%
viability, T/C [30]: 48.2%
viability, T/C [31]: 68.9%
viability, T/C [32]: 66.5%
viability, T/C [33]: 70.2%
viability, T/C [34]: 62.1%
viability, T/C [35]: 61.1%
viability, T/C [36]: 49.4%
